The source of these data is ChEMBL document CHEMBL1139195, “Further studies of tyrosine surrogates in opioid receptor peptide ligands” (Bioorg Med Chem Lett, 2007).

In test [1] the target is T1, Mu-type opioid receptor (Homo sapiens, UniProt P35372).
The target of test [2] is T2, Delta-type opioid receptor (Homo sapiens, UniProt P41143).
The target of test [3] is Kappa-type opioid receptor (Homo sapiens, UniProt P41145).
The target of test [4] is T2, Delta-type opioid receptor. Type of test: functional.
Test [5] has as its target T1, Mu-type opioid receptor. It counts as functional.

*1 amine or outer side, *2 acyl side, *3 side chain or, on linkers, in order; H or OH if unused. Where a SMILES comes first, the peptide text is derived from it. [ ]: non-standard residue; d: D form. Ala(2-NH2-benzothiazol-6-yl) = Nc1nc2ccc(C[C@H](N)C(=O)O)cc2s1; Phe(2,6-Me2,4-CONH2) = Cc1cc(C(N)=O)cc(C)c1C[C@H](N)C(=O)O; Phe(3-CONH2) = NC(=O)c1cccc(C[C@H](N)C(=O)O)c1; Phe(4-CONH2) = NC(=O)c1ccc(C[C@H](N)C(=O)O)cc1; X1 = O=C([C@H](Cc1cc[n+]([O-])cc1)N[*:1])[*:2]

T1 sequence (P35372 whole entry): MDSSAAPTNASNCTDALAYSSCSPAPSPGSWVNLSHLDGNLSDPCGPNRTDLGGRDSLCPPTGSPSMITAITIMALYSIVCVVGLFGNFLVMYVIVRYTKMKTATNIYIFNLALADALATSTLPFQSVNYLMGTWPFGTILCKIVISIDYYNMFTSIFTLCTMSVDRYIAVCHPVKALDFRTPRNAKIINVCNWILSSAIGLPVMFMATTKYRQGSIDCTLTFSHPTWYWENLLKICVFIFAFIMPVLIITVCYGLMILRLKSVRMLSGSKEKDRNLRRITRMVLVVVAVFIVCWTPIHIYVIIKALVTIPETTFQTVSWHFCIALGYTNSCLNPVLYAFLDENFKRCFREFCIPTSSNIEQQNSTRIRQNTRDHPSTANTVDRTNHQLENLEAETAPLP
Chain of Kappa-type opioid receptor (P41145 whole entry): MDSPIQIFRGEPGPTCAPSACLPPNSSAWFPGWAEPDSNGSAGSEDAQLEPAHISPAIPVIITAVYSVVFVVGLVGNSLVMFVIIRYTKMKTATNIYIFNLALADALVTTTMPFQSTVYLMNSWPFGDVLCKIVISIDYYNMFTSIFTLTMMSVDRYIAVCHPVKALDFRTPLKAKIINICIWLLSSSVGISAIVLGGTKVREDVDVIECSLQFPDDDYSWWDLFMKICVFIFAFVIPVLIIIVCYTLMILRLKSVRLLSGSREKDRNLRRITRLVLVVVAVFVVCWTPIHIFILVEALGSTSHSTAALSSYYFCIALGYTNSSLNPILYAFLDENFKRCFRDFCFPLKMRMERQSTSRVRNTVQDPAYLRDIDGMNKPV
T2 sequence (P41143 whole entry): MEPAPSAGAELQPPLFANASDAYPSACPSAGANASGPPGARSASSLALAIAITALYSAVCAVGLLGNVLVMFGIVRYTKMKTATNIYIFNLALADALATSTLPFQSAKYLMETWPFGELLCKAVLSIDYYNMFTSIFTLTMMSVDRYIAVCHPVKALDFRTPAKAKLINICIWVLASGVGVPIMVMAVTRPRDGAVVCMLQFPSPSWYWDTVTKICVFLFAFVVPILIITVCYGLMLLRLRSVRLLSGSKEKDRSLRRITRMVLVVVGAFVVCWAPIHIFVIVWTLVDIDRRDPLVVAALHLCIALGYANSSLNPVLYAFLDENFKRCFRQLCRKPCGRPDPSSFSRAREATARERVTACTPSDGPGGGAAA

Usually Ki stands for a dissociation constant, usually derived from enzyme kinetics or from competition with a known ligand. Read a low Ki as higher affinity. For orientation: EC50 means the midpoint of the concentration-response curve. Low values mean a more potent agent, high ones a less potent agent. As for `CSCC[C@H](NC(=O)[C@H](Cc1ccccc1)NC(=O)CNC(=O)[C@@H](C)NC(=O)[C@@H](N)Cc1ccc2nc(N)sc2c1)C(=O)O`, the values for the inhibition constant (Ki) in test [1], in test [2] and in test [3] were 100 nM, 1 nM and above 10000 nM, respectively. The 50% effective concentration (EC50) in test [4] worked out at 24 nM; in test [5], 350 nM.

For the compound `CC(C)C[C@@H](NC(=O)[C@H](Cc1ccccc1)NC(=O)CNC(=O)[C@@H](C)NC(=O)[C@@H](N)Cc1cccc(C(N)=O)c1)C(=O)O`, the figures for the Ki in test [1], in test [2] and in test [3] were 560 nM, 170 nM and above 10000 nM, respectively. For the same compound, the midpoint of the response in test [4], the EC50, lay at 1700 nM.

Take `CC(C)C[C@H](NC(=O)[C@H](Cc1ccccc1)NC(=O)CNC(=O)CNC(=O)[C@@H](N)Cc1ccc2nc(N)sc2c1)C(=O)O` (H-[Ala(2-NH2-benzothiazol-6-yl)]GGFL-OH): the inhibition constant Ki is 1200 nM in test [1], 19 nM in test [2] and above 10000 nM in test [3]. In test [4], this compound gave an EC50 of 580 nM.

As to `CSCC[C@H](NC(=O)[C@H](Cc1ccccc1)NC(=O)CNC(=O)CNC(=O)[C@@H](N)Cc1ccc(O)cc1)C(=O)O`, the Ki in test [3] is above 10000 nM.

`CC(C)C[C@@H](NC(=O)[C@H](Cc1ccccc1)NC(=O)CNC(=O)[C@@H](C)NC(=O)[C@@H](N)Cc1ccc2nc(N)sc2c1)C(=O)O`: the Ki was 1200 nM in test [1], 10 nM in test [2] and above 10000 nM in test [3]. The same compound came in with a half-maximal effective concentration (EC50) in test [4] of 150 nM.

In the case of `CC(C)C[C@H](NC(=O)[C@H](Cc1ccccc1)NC(=O)CNC(=O)[C@@H](CO)NC(=O)[C@@H](N)Cc1ccc2nc(N)sc2c1)C(=O)N[C@H](C(=O)O)[C@@H](C)O`, the Ki is 640 nM in test [1], 3.8 nM in test [2] and above 10000 nM in test [3]. The EC50 in test [4] came to 97 nM.

Regarding `CSCC[C@H](NC(=O)[C@H](Cc1ccccc1)NC(=O)CNC(=O)CNC(=O)[C@@H](N)Cc1ccc(O)cc1)C(N)=O`, in test [3], the affinity corresponds to a Ki of 210 nM.

In the case of `CC(C)C[C@H](NC(=O)[C@H](Cc1ccccc1)NC(=O)CNC(=O)CNC(=O)[C@@H](N)Cc1cc[n+]([O-])cc1)C(=O)O` (H-[X1]GGFL-OH), the inhibition constant (Ki) in test [1], in test [2] and in test [3] was above 10000 nM throughout.

In the case of `CC(C)C[C@@H](NC(=O)[C@H](Cc1ccccc1)NC(=O)CNC(=O)[C@@H](C)NC(=O)[C@@H](N)Cc1cc[n+]([O-])cc1)C(=O)O`, the Ki in test [1], in test [2] and in test [3] was above 10000 nM throughout.

`Cc1cc(C(N)=O)cc(C)c1C[C@H](N)C(=O)N[C@H](CO)C(=O)NCC(=O)N[C@@H](Cc1ccccc1)C(=O)N[C@@H](CC(C)C)C(=O)N[C@H](C(=O)O)[C@@H](C)O`: the Ki in test [1] was 19 nM; in test [2], 1.2 nM; in test [3], above 10000 nM. The concentration for a half-maximal effect (EC50) in test [4] came to 3.5 nM; in test [5], 250 nM.

With `CC(C)C[C@@H](NC(=O)[C@H](Cc1ccccc1)NC(=O)CNC(=O)[C@@H](C)NC(=O)[C@@H](N)Cc1ccc(C(=O)O)cc1)C(=O)O`, the inhibition constant Ki is above 10000 nM in test [1], 1100 nM in test [2] and above 10000 nM in test [3].

In the case of `Cc1cc(C(N)=O)cc(C)c1C[C@H](N)C(=O)N[C@H](C)C(=O)NCC(=O)N[C@@H](Cc1ccccc1)C(=O)N[C@H](CC(C)C)C(=O)O`, the Ki in test [1] is 9.8 nM; in test [2] it was 0.78 nM; in test [3] it was 2400 nM. The concentration giving a half-maximal response (EC50) in test [4] was 2.5 nM; in test [5] it was 49 nM.

`CC(C)C[C@@H](NC(=O)[C@H](Cc1ccccc1)NC(=O)CNC(=O)[C@@H](C)NC(=O)[C@@H](N)Cc1ccc(N)cc1)C(=O)O`: the inhibition constant Ki was 1400 nM in test [1], 19 nM in test [2] and above 10000 nM in test [3]. In test [4], the EC50 was 74 nM.

With `CC(C)C[C@H](NC(=O)[C@H](Cc1ccccc1)NC(=O)CNC(=O)[C@@H](CO)NC(=O)[C@@H](N)Cc1cc[n+]([O-])cc1)C(=O)N[C@H](C(=O)O)[C@@H](C)O`, the inhibition constant Ki is above 10000 nM in test [1], 360 nM in test [2] and above 10000 nM in test [3].

Take `CSCC[C@H](NC(=O)[C@H](Cc1ccccc1)NC(=O)CNC(=O)CNC(=O)[C@@H](N)Cc1ccc(C(N)=O)cc1)C(=O)O` (H-[Phe(4-CONH2)]GGFM-OH): the results for the Ki in test [1], in test [2] and in test [3] were 28 nM, 1.8 nM and 1030 nM, respectively. In addition, the half-maximal effective concentration (EC50) is 5.2 nM in test [4] and 140 nM in test [5].

As to `CSCC[C@H](NC(=O)[C@H](Cc1ccccc1)NC(=O)CNC(=O)CNC(=O)[C@@H](N)Cc1ccc(C(N)=O)cc1)C(N)=O` (H-[Phe(4-CONH2)]GGFM-NH2), the Ki in test [1] is 18 nM; in test [2], 1.3 nM; in test [3], 460 nM. Also, the results for the EC50 in test [4] and in test [5] were 10 nM and 270 nM, respectively.

In the case of `CC(C)C[C@H](NC(=O)[C@H](Cc1ccccc1)NC(=O)CNC(=O)[C@@H](CO)NC(=O)[C@@H](N)Cc1cccc(C(N)=O)c1)C(=O)N[C@H](C(=O)O)[C@@H](C)O`, the inhibitory constant (Ki) in test [1] was 1100 nM; in test [2] it was 42 nM; in test [3], above 10000 nM. Further, a half-maximal effect in test [4] (EC50) was put at 730 nM.

`CC1(C)SSC(C)(C)[C@@H](NC(=O)[C@@H](N)Cc2ccc(C(N)=O)cc2)C(=O)NCC(=O)N[C@@H](Cc2ccccc2)C(=O)N[C@H]1C(=O)O`: the inhibitory constant (Ki) was above 10000 nM in test [1], 19 nM in test [2] and above 10000 nM in test [3]. Besides, the EC50 in test [4] was determined as 320 nM.

Turning to `Cc1cc(C(N)=O)cc(C)c1C[C@H](N)C(=O)NCC(=O)NCC(=O)N[C@@H](Cc1ccccc1)C(=O)N[C@@H](CC(C)C)C(=O)O` (H-[Phe(2,6-Me2,4-CONH2)]GGFL-OH), the Ki in test [1] stood at 9.8 nM; in test [2], 1 nM; in test [3] it was 1300 nM. Besides, the EC50 in test [4] amounted to 4.1 nM; in test [5], 180 nM.

Turning to `CC(C)C[C@H](NC(=O)[C@H](Cc1ccccc1)NC(=O)CNC(=O)CNC(=O)[C@@H](N)Cc1cccc(C(N)=O)c1)C(=O)O` (H-[Phe(3-CONH2)]GGFL-OH), the inhibition constant Ki in test [1] was above 10000 nM; in test [2], 475 nM; in test [3] it was above 10000 nM.
